Measurements from US9789115B2 (priority 2010, dated 2017).

What was measured:
naïve rats = conditions: rat, in vivo
[1] = tested on: opioid-treated operated rats; assay: Experimental protocol 2: OIH precipitated by naloxone, withdrawal responses with von Frey filaments; format: in vivo, rat; conditions: for naloxone-precipitated hyperalgesia: naloxone on day 21
[2] = tested on: operated rats (plantar incision); conditions: rat, in vivo
sigma 2 (σ-2) site = sigma 2 (σ-2) site (Homo sapiens, UniProt Q5BJF2); conditions: cited from earlier work
Sequence of sigma 2 (σ-2) site (Q5BJF2 whole entry): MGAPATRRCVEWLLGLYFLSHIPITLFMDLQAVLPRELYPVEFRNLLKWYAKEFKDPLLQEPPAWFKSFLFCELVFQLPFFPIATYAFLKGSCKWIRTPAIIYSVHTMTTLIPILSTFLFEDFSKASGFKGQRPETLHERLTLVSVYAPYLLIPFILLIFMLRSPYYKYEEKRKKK

CN1CCN(CCc2ccc(Cl)c(Cl)c2)CC1 [BD-1063]
enhancement of allodynia induced by morphine administration (naïve rats): reduces the enhancement of allodynia
morphine-induced hyperalgesia (naïve rats): inhibited

Cc1cc(OCCN2CCOCC2)nn1-c1ccc2ccccc2c1 [compound n° 63, 4-{2-[5-Methyl-1-(naphthalen-2-yl)-1H-pyrazol-3-yloxy]ethyl}morpholine]
naloxone-precipitated hyperalgesia ([1]; 80 mg/kg co-administered with last dose of opioid): unable to precipitate hyperalgesia
naloxone-precipitated hyperalgesia ([1]; 20 and 40 mg/kg co-administered with last dose of opioid): attenuation
allodynia secondary to surgery and OIH when Morphine was used [2]: inhibits allodynia secondary to surgery and OIH
decrease of the mechanical sensitization threshold induced by the surgery [2]: inhibit dose-dependently
development of OIH [2]: inhibits dose-dependently
enhancement of allodynia induced by perioperative morphine [2]: strongly reduced

CN1CC[C@]23c4c5ccc(O)c4O[C@H]2[C@@H](O)C=C[C@H]3[C@H]1C5 [morphine]
analgesic effect of the opioid ([2]; ip): analgesic effect

C=CCN1CC[C@]23c4c5ccc(O)c4O[C@H]2C(=O)CC[C@@]3(O)[C@H]1C5 [naloxone]
nociceptive threshold after naloxone injection ([1]; naloxone 2 mg/kg on day 21 in opioid-treated rats): significant decrease in the nociceptive threshold below the basal value
nociceptive threshold after naloxone injection ([1]; naloxone 2 mg/kg on day 21 in vehicle saline-treated rats): no significant effect

SKF 10047
affinity for the sigma 2 site (sigma 2 (σ-2) site): micromolar affinity
